{"source": "patent US6991804B2", "about": "“Delivery systems for periadventitial delivery for treatment of restenosis and anastomotic intimal hyperplasia” (Edwards Lifesciences Corporation, priority 2000, dated 2006)", "key": {"[1]": {"tested_on": "Balloon-injured Femoral Arteries", "assay": "Balloon-injured femoral arteries: morphometric analysis of histology (media, intima, lumen area)", "assay_type": "in vivo, Dogs", "experimental": "(§1) Balloon injury to the femoral arteries by three sequences of inflation and removal of a 4 Fr. Fogarty catheter generated 5 cm lesions in each femoral artery that were or were not treated with test/control articles. Injured areas were tagged with a staple. The insertion site was repaired and the animal was closed.\nCarotid arteries were exposed and the healing response was evaluated. The grafts, including anastomoses, were fixed under pressure in situ, and were removed along with 4 cm of proximal and distal host vessel. Femoral arteries were exposed and the healing response was observed. The femoral arteries were then fixed under pressure and removed with distal and proximal host tissue. Femoral and carotid arteries were stored in 10% neutral-buffered formalin until analysis by histology. Specimens for histological evaluation were processed and stained with Hematoxalin and Eosin and with Mallory's Trichrome by IDEXX Veterinary Services, West Sacramento, Calif.\nHistology of the femoral arteries was analyzed with Adobe Photoshop. Briefly, (1) the lumen-vessel interface, (2) the internal elastic lamina, and (3) the external elastic lamina were traced on digital images from H&E stained tissue with the greatest amount of hyperplasia. The intimal area was determined by subtracting the area encompassing […]. The medial area was determined by subtracting the area encompassing (2) from (3). The area was measured as (1).\nHistology of sections from areas spanning proximal and distal regions of the balloon-injured femorals and of native tissue proximal to the arteriotomy were evaluated by morphometric analysis as described above."}, "[2]": {"tested_on": "Balloon-injured Femoral Arteries", "assay": "Balloon-injured femoral arteries: lumenal width by angiography", "assay_type": "in vivo, Dogs", "details": "12 weeks", "experimental": "as §1\nAngiography of the femoral arteries was performed at the termination of the experiment. Images were captured as described above and analyzed using NIH Image. Injured areas were identified by radio-opaque clips, and by anatomy. The lumenal widths of the arterial segments were measured just distal to the arteriotomy, and in the mid- and distal portions of the injured segments. The percent stenoses of the anastomoses relative to the adjacent native arterial segment were reported. The mean and least values were reported.\nImages from angiography were captured and analyzed as described previously. The lumenal widths of the arterial segments were measured immediately distal to the arteriotomy, and in the mid- and distal portions of the injured segments."}, "Carotid Vein Grafts": {"tested_on": "Carotid Vein Grafts", "assay": "Carotid vein grafts (femoral vein interposition, end-to-side anastomoses): percent stenoses of anastomoses by angiography", "assay_type": "in vivo, Dogs", "experimental": "The animal was heparinized (100 IU/kg body weight), and anticoagulated at the surgeon's discretion with additional heparin. The carotid artery was cross-clamped and transected. An interpositional graft with end-to-side anastamoses of the femoral vein to the carotid artery was performed. Anastomoses were identified with a surgical staple. Where indicated, the test or control articles were applied to a uniform thickness and allowed to harden. Grafts were placed in both carotid arteries, with the procedures done in series.\nImage analysis was performed by a qualified vascular surgeon who also analyzed the data. REF Images from angiography were captured on a VHS tape. Digital images were captured from this tape and saved after which they were evaluated using NIH Image. The lumenal width of the native arterial segments proximal and distal to the vein grafts, and the proximal and distal anastomoses were measured. The percent stenoses of the anastomoses relative to the adjacent native arterial segment were reported.\nImages were captured as described in section above, and were evaluated by NIH Image. The lumenal width of native arterial segments proximal and distal to the graft and the proximal and distal anastomoses were measured."}, "[3]": {"details": "post-surgery", "procedure": "Animals received standard laboratory diet proscribed in QCOP B618, with supplements provided at the discretion of a veterinarian; water was available ad libitum.\nPost-operative care was performed as described in QCOP B809, along with prophylactic administration of antibiotics (Sulfamethoxaxole and Trimethoprin); analgesics were supplied as described in QCOP B803. 7 days post surgery, animals received 250 mg/day aspirin. The wound site was debrided and temperature, heart rate and respiratory rates were monitored daily the week following surgery. Angiography of the carotid sites was performed following surgery and monthly thereafter. Intravascular ultrasound (IVUS) was used to examine the vein grafts in 10 animals at the 12 week endpoint of the study."}, "[4]": {"details": "histology, 12 weeks, pooled Paclitaxel groups (4 dogs, 8 vessels)"}, "[5]": {"details": "pooled Paclitaxel groups (4 dogs, 8 vessels)"}, "[6]": {"details": "angiography, 12 weeks, pooled Paclitaxel groups (4 dogs, 8 vessels)"}}, "note": "Marks after values point to notes of the source that are not given here."}
{"smiles": "CC(=O)O[C@H]1C(=O)[C@@]2(C)[C@H]([C@H](OC(=O)c3ccccc3)[C@]3(O)C[C@H](OC(=O)[C@H](O)[C@@H](NC(=O)c4ccccc4)c4ccccc4)C(C)=C1C3(C)C)[C@]1(OC(C)=O)CO[C@@H]1C[C@@H]2O", "note": "[Paclitaxel ®, paclitaxel]", "values": [{"measurement": "Intima area of femoral artery in regions of intimal hyperplasia ± Paclitaxel (Mean ± s.d.)", "setting": "[1]; [4]", "result": "1.95 ± 1.00", "unit": "mm^2"}, {"measurement": "Intima: Media Ratio ± Paclitaxel", "setting": "[1]; [4]", "result": "0.56 ± 0.23"}, {"measurement": "Lumen area of femoral artery in regions of intimal hyperplasia ± Paclitaxel (Mean ± s.d)", "setting": "[1]; [4]", "result": "4.98 ± 1.05* mm^2"}, {"measurement": "Media area of femoral artery in regions of intimal hyperplasia ± Paclitaxel (Mean ± s.d.)", "setting": "[1]; [4]", "result": "3.38 ± 0.84", "unit": "mm^2"}, {"measurement": "Change in intimal: medial ratio (statement in words)", "setting": "[1]; morphometric analysis of histology, femoral sections", "result": "absence of changes"}, {"measurement": "Larger lumen width versus no Paclitaxel", "setting": "[1]; morphometric analysis of histology, femoral sections with largest stenotic response, p</=0.06", "result": 44, "unit": "%"}, {"measurement": "Difference between control, vehicle and Paclitaxel treatment groups in femoral lumenal width (statement in words)", "setting": "[2]", "result": "no significant difference"}, {"measurement": "Least Lumenal Width of Balloon-Injured Segments Relative to Native Vessel ± Paclitaxel (Mean ± s.d)", "setting": "[2]; [5]", "result": "1.32 ± 0.47", "unit": "mm"}, {"measurement": "Men Lumenal Width of Balloon-Injured Segments Relative to Native Vessel ± Paclitaxel (Mean ± s.d.)", "setting": "[2]; [5]", "result": "1.52 ± 0.24", "unit": "mm"}, {"measurement": "Stenosis at anastomotic sites of carotid grafts (statement in words)", "setting": "Carotid Vein Grafts; angiography at the 12 week endpoint", "result": "limited stenosis at the proximal and distal anastomotic sites"}, {"measurement": "Per Cent Stenoses of Carotid Grafts ± Paclitaxel, Distal Anastomotic Site (mean ± s.d.)", "setting": "Carotid Vein Grafts; [6]", "result": "1.1 ± 2.2", "unit": "%"}, {"measurement": "Per Cent Stenoses of Carotid Grafts ± Paclitaxel, Proximal Anastomotic Site (mean ± s.d)", "setting": "Carotid Vein Grafts; [6]", "result": "5.9 ± 6.5", "unit": "%"}, {"measurement": "Subcutaneous hematomas at the carotid site (animals affected/animals)", "setting": "[3]; lesions resolved with time", "result": "4/8"}, {"measurement": "Hematoma at the femoral site (animals affected/animals)", "setting": "[3]; reduced in size with time and healed well", "result": "2/8"}]}
